From patent publication US20220267444A1, “ANTI-PD-1 ANTIBODY AND MEDICAL USE THEREOF” (CTTQ-AKESO (SHANGHAI) BIOMED. TECH. CO., LTD., priority 2019, published 2022)

Experiments:
[1] = system: MSI-H/dMMR tumor SW48 cells; assay: Raji-PDL1, PBMC and SW48 co-culture with antibodies and anlotinib, IL-2 ELISA; type: cell-based, human; conditions: 3 days, compared to anti-HEL antibody
Procedure: SW48 is a human colorectal cancer cell line and is identified with MSI-H/dMMR phenotype (Branch P et al., (1995), Cancer Res, 55(11): 2304-2309). It was used for detecting the enhanced immune cell response to tumor of MSI-H/dMMR phenotype by 14C12H1L1(hG1TM).
PBMCs were isolated from healthy human peripheral blood according to the Ficoll-Paque™ Plus reagent instruction, and the isolated PBMCs were counted and frozen. Raji-PDL1 cells were cultured in RPMI 1640+10% FBS complete medium, and SW48 cells (purchased from GuangZhou Jennio Biotech Co., Ltd.) were cultured in DMEM+10% FBS complete medium. PBMCs were thawed and activated with 0.5 μg/mL SEB for two days. On the day of the experiment, Raji-PDL1 cells were treated with 2 μg/mL MMC for 1 h. SEB-activated PBMCs and MMC-treated Raji-PDL1 cells were collected, washed twice with PBS, resuspended in RPMI 1640+10% FBS complete medium and counted. Raji-PDL1 and PBMC cells were seeded on 96-well plates at 1×10^5 cells/well. SW48 cells in logarithmic growth phase were collected and seeded on the 96-well plate at 2×10^5 cells/well. The diluted antibody and anlotinib was added according to the study design. The mixture was mixed evenly and incubated in a 5% CO2 incubator at 37° C. for 3 days. After 3 days, the cell culture supernatant was collected and tested for IL-2 according to ELISA KIT instruction. […]

[2] = system: human nasopharyngeal cancer CNE-2Z cells; assay: Raji-PDL1, PBMC and CNE-2Z co-culture with antibodies and anlotinib, IL-2 ELISA; type: cell-based; conditions: CNE-2Z co-culture, 3 days; compared to the anti-HEL antibody and the anlotinib monotherapies
Procedure: PBMCs were isolated from healthy human peripheral blood according to the Ficoll-Paque™ Plus reagent instruction, and the isolated PBMCs were counted and frozen. Raji-PDL1 and CNE-2Z cells (purchased from GuangZhou Jennio Biotech Co., Ltd.) were cultured in RPMI 1640+10% FBS complete medium. PBMCs were thawed and activated with 0.5 μg/mL SEB for two days. On the day of the experiment, Raji-PDL1 cells were treated with 2 μg/mL MMC for 1 h. SEB-activated PBMCs and MMC-treated Raji-PDL1 cells were collected, washed twice with PBS, resuspended in RPMI 1640+10% FBS complete medium and counted. Raji-PDL1 and PBMC cells were seeded on 96-well plates at 1×10^5 cells/well. CNE-2Z cells in logarithmic growth phase were collected and seeded on the 96-well plate at 3×10^4 cells/well. The diluted antibodies and anlotinib were added according to the study design. The mixture was mixed evenly and incubated in a 5% CO2 incubator at 37° C. for 3 days. After 3 days, the cell culture supernatant was collected and tested for IL-2 according to ELISA KIT instruction. The media in this experiment were all 10% FBS+RPMI 1640.

[3] = system: human colorectal cancer SW837 cells; assay: Raji-PDL1, PBMC and SW837 co-culture, IL-2 ELISA; type: cell-based; conditions: 3 days
Procedure: SW837 is a human colorectal cancer cell line of non-MSI-H/dMMR (i.e., MSS) phenotype (Guo J et al., Cancer Res., 2011; 71(8):2978-2987), and was used for detecting the enhanced immune cell response to tumor of non-MSI-H/dMMR (i.e., MSS) phenotype by 14C12H1L1(hG1TM) in this example.
PBMCs were isolated from healthy human peripheral blood according to the Ficoll-Paque™ Plus reagent instruction, and the isolated PBMCs were counted and frozen. Raji-PDL1 cells were cultured in RPMI 1640+10% FBS complete medium, and SW837 cells (purchased from Shanghai Honsun Biological Technology Co., Ltd) were cultured in 10% FBS+Leibovitz's L-15 complete medium (purchased from Gibco). PBMCs were thawed and activated with 0.5 μg/mL SEB for two days. On the day of the experiment, Raji-PDL1 cells were treated with 2 μg/mL MMC for 1 h. SEB-activated PBMCs and MMC-treated Raji-PDL1 cells were collected, washed twice with PBS, resuspended in RPMI 1640+10% FBS complete medium and counted. Raji-PDL1 and PBMC cells were seeded on 96-well plates at 1×10^5 cells/well. SW837 cells in logarithmic growth phase were collected and seeded on the 96-well plate at 5×10^4 cells/well. The diluted antibody was added according to the study design. The mixture was mixed evenly and incubated in a 5% CO2 incubator at 37° C. for 3 days. […]

CHO-K1-PD1 cells = assay: Antibody-mediated phagocytic activity (ADCP) of murine macrophages on CHO-K1-PD1; type: cell-based, mouse; conditions: CHO-K1-PD1-CFSE target cells
Procedure: To detect the antibody dependent cellular phagoxytosis (ADCP) activity, murine macrophages were used as effector cells and cell lines overexpressing PD1 were used as target cells. The femoral bone marrow of Blab/c mice (purchased from Guangdong Medical Laboratory Animal Center) was first aseptically collected and lysed by erythrocyte lysis buffer on ice for 5 min. The lysis was terminated with DMEM complete medium (containing 10% FBS), and the lysate was centrifuged at 1000 rpm and washed twice. The cell pellet was resuspended in 10 mL of DMEM complete medium and M-CSF were added at a working concentration of 100 ng/mL. […] The supernatant was discarded and the cells were suspended in DMEM complete medium (containing 10% FBS) and counted. […] CHO-K1-PD1 cells (a CHO-K1 cell line overexpressing PD1) were centrifuged at 170×g for 5 min, washed once with PBS, resuspended and counted. The viability was determined. […]
The test antibodies were diluted in DMEM complete medium to 20, 2 and 0.2 μg/mL (the working concentrations were 10, 1 and 0.1 μg/mL). […] The cells were transferred to loading tube and analyzed by BD FACS Calibur flow cytometer. […] The phagocytosis rate was determined as the ratio of the number of double positive cells to the number of APC positive cells, and the antibody-mediated ADCP activity was evaluated. […]

Substance: nivolumab: anti-PD-1 antibody nivolumab (trade name: Opdivo), purchased from Bristol-Myers Squibb [reference compound]
- immune response of immune cells (secretion level of IL-2) [1]: significantly increased secretion level of IL-2
- immune response of immune cells (IL-2 secretion level) [2]: significantly increased IL-2 secretion level
- immune response of immune cells (IL-2) [3]: significantly enhanced the immune response
- ADCP effect (CHO-K1-PD1 cells): have ADCP effects
- phagocytic rate relative to that of the isotype control anti-HEL antibody (CHO-K1-PD1 cells; at the same concentration, 2 h, flow cytometry): 4.26 times
